A word on the solubility (kinetic): it is solubility judged after dilution from a stock solution rather than from solid.

Data on 40 compounds can be found in PubChem BioAssay AID1996.

Molecules are shown by their SMILES. Values after ≈ are worked out from the molar mass of the structure shown.

For this data set the following is noted: buffer; pH 7.4; 200.0 µM.
For `O=[N+]([O-])c1cc(S(=O)(=O)N2CCCC2)ccc1SCCO`, the kinetic solubility is above 49.9 µg/mL.

The compound `Cc1ccc(N=C2NC(=O)/C(=C/c3cccn3C)S2)cc1C` showed a kinetic solubility of 0.9 µg/mL (≈ 2.89 µM).

As for `Cc1ccc(C(=O)N2CCCC(Nc3ccc(F)c(F)c3)C2)cn1` (stereo not given), the kinetic solubility was above 49.7 µg/mL.

`Nc1cc(C(=O)OCC(=O)Nc2cccc(S(=O)(=O)N3CCOCC3)c2)ccc1Cl` registered a solubility (kinetic) of 24.4 µg/mL (≈ 53.8 µM).

For the compound `COC(=O)c1scc(C)c1NS(=O)(=O)c1ccc(NC(C)=O)cc1`, the solubility (kinetic) was above 55.3 µg/mL.

Compound `CC(=O)N[C@H]1C(O)O[C@H](CO)[C@@H](O)[C@@H]1O` (stereo not given in full) returned a kinetic solubility above 33.2 µg/mL.

Compound `CCOC(=O)N1CCN(C(=S)NC(=O)/C=C/c2ccc(C)cc2)CC1` yielded a solubility (kinetic) of 18.1 µg/mL (≈ 50.1 µM).

Turning to `COc1ccccc1NC(=O)CC(=O)c1cccc([N+](=O)[O-])c1`, the solubility (kinetic) stood at 2.9 µg/mL (≈ 9.23 µM).

`COc1ccc(C)c2sc(N(CCN(C)C)C(=O)c3ccc4ccccc4c3)nc12.Cl` had a solubility (kinetic) of 30.8 µg/mL.

The compound `CC(C(=O)NC1CCCCCC1)c1ccc([N+](=O)[O-])cc1` (stereo not given) yielded a kinetic solubility of 7.1 µg/mL (≈ 24.5 µM).

The compound `CCC1Cc2c(nc(N)c3c(N)nc(N4CCOCC4)c(C#N)c23)O1` (stereo not given) came in with a solubility (kinetic) of 8.9 µg/mL (≈ 26.1 µM).

`Cc1ccc(S(=O)(=O)NCC(=O)OCC(=O)N(CCC#N)c2ccccc2)cc1`: the kinetic solubility is above 62.3 µg/mL.

Compound `CC(C)Oc1ncnc2c1[nH]c1ccccc12` came in with a kinetic solubility of 12.5 µg/mL (≈ 55 µM).

Consider `Cc1ccc(NC(=O)/C(=C\c2ccccc2)NC(=O)c2ccco2)cc1`, for which the kinetic solubility was determined as 4.7 µg/mL (≈ 13.6 µM).

`O=C1CCC(C(=O)Nc2ccccc2N2CCCC2)=NN1` yielded a solubility (kinetic) above 42.9 µg/mL.

Turning to `CCn1c(CCNC(=O)c2ccco2)nc2ccccc21`, the solubility (kinetic) was determined as 40.5 µg/mL (≈ 143 µM).

Regarding `Cc1nnc(SCC(=O)Nc2sccc2C#N)s1`, the kinetic solubility is above 44.5 µg/mL.

Consider `O=C(COc1ccccc1Cl)NCCNC(=O)c1cnccn1`, for which the kinetic solubility came to 39.6 µg/mL (≈ 118 µM).

`Cc1nc2ccccc2cc1C(=O)NCc1ccccc1`: the solubility (kinetic) is above 41.5 µg/mL.

In turn, `CC(=O)Nc1ccc(-c2csc(NCc3ccccc3)n2)cc1` had a kinetic solubility of 33.9 µg/mL (≈ 105 µM).

In turn, `O=c1oc2c(O)cccc2cc1-c1nc2ccccc2[nH]1` returned a solubility (kinetic) of 1.1 µg/mL (≈ 3.95 µM).

`CN1CCOCCOc2ccccc2OCCOCC1` showed a kinetic solubility above 42.2 µg/mL.

Compound `CC(C)CNC(=O)c1ccc2c(c1)C(=O)N(C1CCCCC1)C2=O` yielded a kinetic solubility of 4.4 µg/mL (≈ 13.4 µM).

`O=C(NC(=S)N1CCCC1)c1ccc(Cl)cc1` registered a solubility (kinetic) of 35.4 µg/mL (≈ 132 µM).

For the compound `CN(C)CCOC1c2ccccc2C=Cc2ccccc21.O=C(O)/C=C\C(=O)O`, the kinetic solubility is above 59.3 µg/mL.

Consider `Cc1noc(C)c1C(=O)Nc1ccc(C#N)cc1`, for which the solubility (kinetic) is above 36.2 µg/mL.

`O=C(O)COCC(=O)Nc1ccc(-n2cnnn2)cc1` gave a kinetic solubility above 41.6 µg/mL.

The compound `CC(=O)Nc1ccc(SCC(=O)Nc2ccccc2N2CCOCC2)cc1` returned a kinetic solubility of 3.9 µg/mL (≈ 10.1 µM).

`CC1CCCCN1CCCNc1c(C=O)c(=O)[nH]c2ccccc12` (stereo not given) had a solubility (kinetic) of 46.7 µg/mL (≈ 143 µM).

Turning to `O=c1cc(CN2CCOCC2)c2cc(Cl)c(O)cc2o1`, the solubility (kinetic) was above 44.4 µg/mL.

In turn, `CCc1nonc1NC(=O)COc1cc(C)c(Cl)c(C)c1` displayed a kinetic solubility of 0.3 µg/mL (≈ 0.969 µM).

Regarding `COC(=O)[C@H](Cc1ccccc1)NC(=O)NC(C)CCc1ccccc1` (stereo not given in full), the solubility (kinetic) was found to be 49.8 µg/mL (≈ 140 µM).

In turn, `Cn1c(CC(=O)NNC(=O)c2ccccc2F)nc2ccccc21` came in with a kinetic solubility above 48.9 µg/mL.

In turn, `O=Cc1c(NCc2ccc(F)cc2)c2ccccc2[nH]c1=O` yielded a solubility (kinetic) of 2.6 µg/mL (≈ 8.77 µM).

The compound `COc1ccc2nc(NC(=O)c3ccc([N+](=O)[O-])o3)sc2c1` displayed a kinetic solubility of 2 µg/mL (≈ 6.26 µM).

As to `CN(C)C(=O)c1ccc(-n2cnc3ccccc3c2=O)cc1`, the kinetic solubility was above 44 µg/mL.

As for `COc1cccc(CN(C)C(=O)c2sccc2-c2ccccc2)c1OC`, the kinetic solubility amounted to 34.6 µg/mL (≈ 94.2 µM).

With `O=C(Nc1ccc(Br)cc1)c1ccc2ncsc2c1`, the kinetic solubility amounted to 7.9 µg/mL (≈ 23.7 µM).

`O=C(O)Cn1c(=O)c2c(c3ccccc31)CCC2`: the kinetic solubility is above 36.5 µg/mL.

`COC(=O)C1CSC(c2ccc(Cl)cc2)N1C(=O)c1ccccc1` (stereo not given) showed a kinetic solubility of 34.1 µg/mL (≈ 94.2 µM).
